Where two headings read alike, the source gives them in different places.

Results on four molecules are retold here after PMC3901310 (Analytical chemistry, 2013).

Holding throughout (assay type): binding
The target of test [1] is T1, Ribonuclease A (RNaseA) (Bos taurus, UniProt P61823).
T1 sequence (P61823 27-150): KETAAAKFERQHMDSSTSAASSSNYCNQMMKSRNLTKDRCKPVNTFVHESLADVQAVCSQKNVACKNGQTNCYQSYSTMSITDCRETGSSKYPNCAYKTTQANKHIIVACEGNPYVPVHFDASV
Nature of the test: reactive liquid sample DESI-MS of the native […] complex.

For test [2], the target named is T1, Ribonuclease A (RNaseA). Described as above. The source holds these as a separate data set.
A further test has as its target lysozyme (Gallus gallus, UniProt P00698). The description is as above.
The target in test [3] is T1, Ribonuclease A (RNaseA). Nature of the test: reactive liquid sample DESI-MS of the native complex, ligand titration.

lysozyme, sequence (P00698 19-147): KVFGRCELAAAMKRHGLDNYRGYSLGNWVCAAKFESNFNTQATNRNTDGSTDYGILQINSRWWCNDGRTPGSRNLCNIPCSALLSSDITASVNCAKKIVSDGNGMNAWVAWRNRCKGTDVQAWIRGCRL

On to `Nc1ccn([C@@H]2O[C@H](COP(=O)(O)OP(=O)(O)O)[C@@H](O)[C@H]2O)c(=O)n1` [CDP, cytidine 5′-diphosphate], for which the “reactive liquid sample DESI-MS of the native 1:1 complex ([holo]/[apo] ratio at” value on Ribonuclease A (RNaseA) [1] is reported as 0.37±0.04.
Take `Nc1ccn([C@@H]2O[C@H](CO)[C@@H](O)[C@H]2OP(=O)(O)O)c(=O)n1` [2′-CMP, cytidine 2′-monophosphate]: the “reactive liquid sample DESI-MS of the native 1:1 complex ([holo]/[apo] ratio at” value at Ribonuclease A (RNaseA) [2] is 0.13±0.017.
One may read the Kd as the equilibrium constant for the complex coming apart. The molecule `CC(=O)N[C@H]1[C@H](O[C@H]2[C@H](O)[C@@H](NC(C)=O)C(O)O[C@@H]2CO)O[C@H](CO)[C@@H](O[C@@H]2O[C@H](CO)[C@@H](O)[C@H](O)[C@H]2NC(C)=O)[C@@H]1O` (stereo partly shown) [NAG3, N,N’,N’’-triacetylchitotriose] returned a dissociation constant (Kd) at lysozyme of 169 µM.
`Nc1ccn([C@@H]2O[C@H](COP(=O)(O)OP(=O)(O)OP(=O)(O)O)[C@@H](O)[C@H]2O)c(=O)n1` [CTP, cytidine 5′-triphosphate] displayed a Kd at Ribonuclease A (RNaseA) [3] of 1910 nM.
